The record followed here is US20260200926A1, “TREM2 MODULATORS” (Muna Therapeutics ApS, priority 2022, published 2026).

One may read the Emax as the size of the effect at its maximum, as opposed to the concentration needed. By EC50 is commonly meant the midpoint of the concentration-response curve.

The target in this test is T1, Human TREM2 (Homo sapiens, UniProt Q9NZC2).
T1 construct: expressed in transfected cells
In words: Human TREM2 activity: cellular phosphorylation of Syk (AlphaLISA SureFire Ultra p-SYK) in HEK293/DAP12+TREM2 stable cell line. The format is cell-based. To be noted: for Emax: HEK293, maximal response relative to reference agonist example 1B (remaining examples), read-out: Emax; for EC50: phospho-Syk AlphaLISA signal, HEK293/DAP12+TREM2 cells, concentration giving 50% of maximal response, read-out: EC50. The method in brief:
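HEK293 cells stably co-expressing human TREM2 and DAP12 were seeded at 10,000 cells/well and used 20–24 h later. Compounds were tested at 8 concentrations (top 100 μM, 1:6 steps, 0.5% DMSO) for 30 min at 37 °C. Syk phosphorylation at Tyr525/526 was read in lysates by AlphaLISA SureFire Ultra.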
Background: Alpha assays give light when donor and acceptor beads are brought close together.

Where a name gives a salt, the structure may show the parent alone.

T1 sequence (Q9NZC2 19-230): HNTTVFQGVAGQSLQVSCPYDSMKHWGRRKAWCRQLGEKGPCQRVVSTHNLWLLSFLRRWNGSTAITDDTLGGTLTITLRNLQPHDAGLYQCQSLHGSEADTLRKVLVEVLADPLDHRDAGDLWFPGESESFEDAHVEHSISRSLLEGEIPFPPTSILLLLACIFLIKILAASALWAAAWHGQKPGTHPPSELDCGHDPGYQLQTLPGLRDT
T1 sequence (O43914 22-113 partner): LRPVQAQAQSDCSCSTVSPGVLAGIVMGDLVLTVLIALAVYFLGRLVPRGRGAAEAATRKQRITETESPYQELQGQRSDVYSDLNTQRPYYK

Regarding `Cc1nc2c(-c3ccc(Cl)cc3F)nc(N3CCOC(c4ncon4)C3)nc2c(=O)n1C` (centres unmarked) [Example 58, 6-(2-(1,2,4-oxadiazol-3-yl)morpholino)-8-(4-chloro-2-fluorophenyl)-2,3-dimethylpyrimido[5,4-d]pyrimidin-4(3H)-one], the maximum response (Emax) was in the range of 75 to 110% and the EC50 lay in the range of 100 to 1000 nM.
Consider `Cc1cc([C@H]2CN(c3nc(-c4cc(F)c(F)cc4F)c4nc(C)n(C)c(=O)c4n3)CCO2)ccn1` (single isomer, unassigned) [Example 123B], for which the Emax lay within 75 to 110% and the 50% effective concentration (EC50) lay in the range of 10 to 100 nM.
The like results for `Cc1nc2c(-c3ccc(Cl)cc3F)nc(N3CCn4nc(C(F)(F)F)nc4C3)nc2c(=O)n1C` [Example 188, 8-(4-chloro-2-fluorophenyl)-2,3-dimethyl-6-(2-(trifluoromethyl)-5,6-dihydro-[1,2,4]triazolo[1,5-a]pyrazin-7 (8H)-yl)pyrimido[5,4-d]pyrimidin-4 (3H)-one] were, in that order, < 75% and 10 to 100 nM.
On to `Cc1nc2c(-c3ccc(Cl)cc3F)nc(N3CC(c4cnn(C)c4)OC(F)(F)C3)nc2c(=O)n1C` (centres unmarked) [Example 115, 8-(4-chloro-2-fluorophenyl)-6-(2,2-difluoro-6-(1-methyl-1H-pyrazol-4-yl)morpholino)-2,3-dimethylpyrimido[5,4-d]pyrimidin-4 (3H)-one], for which the maximal response (Emax) was in the range of 75 to 110% and the EC50 lay in the range of 1 to 10 nM.
For the compound `Cc1nc2c(-c3ccc(F)cc3F)nc(N3C[C@@H](c4cnn(C5CC5)c4)O[C@@H](C)C3)cc2c(=O)n1C` (single isomer, unassigned) [Example 190A], the Emax was 75 to 110% and the concentration for a half-maximal effect (EC50) fell in the range of 10 to 100 nM.
Consider `Cc1cc([C@@H]2CN(c3cc4c(=O)n(C)c(C)nc4c(-c4ccc(C(F)(F)F)cc4F)n3)CC(C)(C)O2)ccn1` (single isomer, unassigned) [Example 163A], for which the Emax was < 75% and the EC50 lay within 100 to 1000 nM.
For `C[C@H]1CN(c2nc(-c3ccc(F)cc3F)c3nc(C(F)(F)F)n(C)c(=O)c3n2)C[C@@H](c2cnn(C3CC3)c2)O1` (single isomer, unassigned) [Example 183A], the Emax lay within 75 to 110% and the EC50 fell in the range of 1 to 10 nM.
As to `Cc1nc2c(C3CCC(C)CC3)nc(N3CCOC(c4cnn(C)c4)C3)nc2c(=O)n1C` (single isomer, unassigned) [Example 71A], the maximum response (Emax) lay in the range of 75 to 110% and the EC50 lay within 10 to 100 nM.
As for `Cc1cc([C@@H]2CN(c3nc(-c4ccc(C(F)(F)F)nc4)c4nc(C)n(C)c(=O)c4n3)CC(C)(C)O2)ccn1` (single isomer, unassigned) [Example 164A], the Emax is 75 to 110% and the EC50 lay in the range of 10 to 100 nM.
Regarding `Cc1cc([C@H]2CN(c3cc4c(=O)n(C)c(C)nc4c(-c4ccc(C(F)(F)F)cc4F)n3)CC(C)(C)O2)ccn1` (single isomer, unassigned) [Example 163B], the Emax lay within 75 to 110% and the EC50 lay in the range of 1 to 10 nM.
Turning to `Cc1nc2c(-c3ccc(Cl)cc3F)nc(N3C[C@@H](c4cnn(C)c4)OC4(CC4)C3)nc2c(=O)n1C` (single isomer, unassigned) [Example 108A], the Emax fell in the range of 75 to 110% and the EC50 is 1 to 10 nM.
With `Cc1nc2c(-c3ccc(C(F)(F)F)cc3F)nc(N3CCO[C@@H](c4cnn(C)c4)C3)nc2c(=O)n1C` (single isomer, unassigned) [Example 25B], the Emax was < 75% and the EC50 was 10 to 100 nM.
As to `Cn1cc([C@@H]2CN(c3nc(-c4cc(F)c(F)cc4F)c4nc(C(F)(F)F)n(C)c(=O)c4n3)CC3(CC3)O2)cn1` (single isomer, unassigned) [Example 162A], the Emax was in the range of 75 to 110% and the EC50 was in the range of 1 to 10 nM.
As to `Cc1cc([C@@H]2CN(c3cc4c(=O)n(C)c(C)nc4c(-c4ccc(F)cc4F)n3)C[C@H](C)O2)ccn1` (single isomer, unassigned) [Example 182A], the maximal response (Emax) was > 110% and the EC50 was 1 to 10 nM.
On the same counts, the results for `Cc1nc2c(-c3ccc(Cl)cc3F)nc(N3C[C@@H](c4cnn(C)n4)OC(C)(C)C3)cc2c(=O)n1C` (single isomer, unassigned) [Example 147A] are < 75% and 10 to 100 nM.
The like results for `Cc1nc2c(-c3ccc(Cl)cc3F)nc(N3CCOC(c4cnn(C5CNC5)c4)C3)nc2c(=O)n1C` (centres unmarked) [Example 41, 6-(2-(1-(azetidin-3-yl)-1H-pyrazol-4-yl)morpholino)-8-(4-chloro-2-fluorophenyl)-2,3-dimethylpyrimido[5,4-d]pyrimidin-4 (3H)-one hydrochloride salt] were, in that order, 75 to 110% and 100 to 1000 nM.
On the same counts, the results for `Cc1nc2c(-c3ccc(Cl)cc3F)nc(C3CCOC(c4cnn(C)c4)C3)nc2c(=O)n1C` (centres unmarked) [Example 17, 8-(4-chloro-2-fluorophenyl)-2,3-dimethyl-6-(2-(1-methyl-1H-pyrazol-4-yl)tetrahydro-2H-pyran-4-yl)pyrimido[5,4-d]pyrimidin-4 (3H)-one] are 75 to 110% and 100 to 1000 nM.
With `Cc1nc2c(-c3ccc(Cl)cc3F)nc(N3CCO[C@@H](c4cnn(C5CC5)c4)C3)cc2c(=O)n1C` (single isomer, unassigned) [Example 131B], the Emax is < 75% and the EC50 is 100 to 1000 nM.
For `Cc1cc([C@@H]2CN(c3nc(-c4ccc(C(F)(F)F)cc4F)c4nc(C)n(C)c(=O)c4n3)CC(C)(C)O2)ccn1` (single isomer, unassigned) [Example 124A], the Emax lay within 75 to 110% and the EC50 was 10 to 100 nM.
The like results for `Cc1nc2c(-c3ccc(Cl)cc3F)nc(N3CC(c4cnn(C)c4)OC(C)(C)C3)nc2c(=O)n1C` (centres unmarked) [Example 62, 8-(4-chloro-2-fluorophenyl)-6-(2,2-dimethyl-6-(1-methyl-1H-pyrazol-4-yl)morpholino)-2,3-dimethylpyrimido[5,4-d]pyrimidin-4 (3H)-one] were, in that order, < 75% and 1 to 10 nM.
As for `Cc1nc2c(-c3ccc(Cl)cc3F)nc(N3CCN(CC(F)(F)F)C(c4cnn(C)c4)C3)nc2c(=O)n1C` (centres unmarked) [Example 33, 8-(4-chloro-2-fluorophenyl)-2,3-dimethyl-6-(3-(1-methyl-1H-pyrazol-4-yl)-4-(2,2,2-trifluoroethyl)piperazin-1-yl)pyrimido[5,4-d]pyrimidin-4(3H)-one], the Emax is < 75% and the EC50 lay in the range of 10 to 100 nM.
On the same counts, the results for `CCN1CCN(c2nc(-c3ccc(Cl)cc3F)c3nc(C)n(C)c(=O)c3n2)CC1c1cnn(C)c1` (centres unmarked) [Example 30, 8-(4-chloro-2-fluorophenyl)-6-(4-ethyl-3-(1-methyl-1H-pyrazol-4-yl)piperazin-1-yl)-2,3-dimethylpyrimido[5,4-d]pyrimidin-4(3H)-one] are 75 to 110% and 100 to 1000 nM.
`Cc1nc2c(-c3ccc(C(F)(F)F)nc3)nc(N3CCO[C@H](c4cnn(C)c4)C3)cc2c(=O)n1C` (single isomer, unassigned) [Example 127B]: the Emax was < 75% and the EC50 is > 1000 nM.
The like results for `Cc1nc2c(-c3ccc(Cl)cc3F)nc(N3C[C@@H](c4cnn(C)c4)OC4(CCC4)C3)nc2c(=O)n1C` (single isomer, unassigned) [Example 109A] were, in that order, 75 to 110% and 1 to 10 nM.
On the same counts, the results for `Cc1cc([C@H]2CN(c3nc(-c4ccc(F)cc4F)c4nc(C(F)(F)F)n(C)c(=O)c4c3F)CCO2)ccn1` (single isomer, unassigned) [Example 174B] are < 75% and 100 to 1000 nM.
Turning to `Cn1c(C(F)(F)F)nc2c(-c3ccc(F)cc3F)nc([C@@H]3CCO[C@H](c4cnn(C5CC5)c4)C3)nc2c1=O` (single isomer, unassigned) [Example 196A], the Emax was in the range of 75 to 110% and the EC50 is 1 to 10 nM.
Consider `Cc1nc2c(-c3ccc(Cl)cc3F)nc(N3C[C@H](c4cnn(C)c4)OC(F)(F)C3)nc2c(=O)n1C` (single isomer, unassigned) [Example 149B], for which the Emax is < 75% and the concentration for a half-maximal effect (EC50) was in the range of 10 to 100 nM.
On to `Cc1nc2c(-c3ccc(F)cc3F)nc([C@@H]3CCO[C@H](c4cnn(C5CC5)c4)C3)nc2c(=O)n1C` (single isomer, unassigned) [Example 120A], for which the Emax is < 75% and the EC50 was > 1000 nM.
With `Cc1nc2c(-c3ccc(C(F)(F)F)nc3)nc([C@H]3CCO[C@@H](c4cnn(C)c4)C3)nc2c(=O)n1C` (single isomer, unassigned) [Example 88B], the Emax was < 75% and the EC50 was > 1000 nM.
Take `Cc1nc2c(-c3ccc(Cl)cc3F)nc([C@H]3CCO[C@@H](c4cnn(C)c4)C3)nc2c(=O)n1C` (single isomer, unassigned) [Example 68]: the Emax lay within 75 to 110% and the 50% effective concentration (EC50) is > 1000 nM.
The like results for `Cc1nc2c(-c3ccc(Cl)cc3F)nc(N3CC(OCc4cnn(C)c4)C3)nc2c(=O)n1C` [Example 18, 8-(4-chloro-2-fluorophenyl)-2,3-dimethyl-6-(3-((1-methyl-1H-pyrazol-4-yl)methoxy)azetidin-1-yl)pyrimido[5,4-d]pyrimidin-4 (3H)-one] were, in that order, < 75% and > 1000 nM.
On the same counts, the results for `Cc1nc2c(-c3cc(F)c(F)cc3F)nc(N3C[C@H](c4cnn(C)c4)OC(C)(C)C3)nc2c(=O)n1C` (single isomer, unassigned) [Example 101B] are < 75% and > 1000 nM.
In the case of `Cc1nc2c(-c3ccc(Cl)cc3F)nc([C@@H]3C[C@H]3c3cnn(C)c3)cc2c(=O)n1C` (single isomer, unassigned) [Example 148B], the Emax was < 75% and the 50% effective concentration (EC50) is > 1000 nM.
The like results for `C[C@@H]1CN(c2cc3c(=O)n(C)c(C(F)(F)F)nc3c(-c3ccc(F)cc3F)n2)C[C@H](c2cnn(C3CC3)c2)O1` (single isomer, unassigned) [Example 193B] were, in that order, < 75% and 10 to 100 nM.
